# Reference: patent US8563714B2, “Bridged spiro [2.4] heptane derivatives as ALX receptor and/or FPRL2 agonists” (Actelion Pharmaceuticals Ltd., priority 2009, dated 2013)
# Key:
# human ALX receptor = target: T1, human ALX receptor (Homo sapiens, UniProt P25090); test: Intracellular calcium measurements (FLIPR), agonistic activity in HEK293-hALXR-Gα16 cells; format: cell-based; details: Fluo-4 calcium FLIPR, normalized to WKYMVm 10 nM
# T1 construct: expressed in transfected cells; host or cells: HEK293 (HEK293-hALXR-Gα16)
# T1 sequence (P25090 1-351): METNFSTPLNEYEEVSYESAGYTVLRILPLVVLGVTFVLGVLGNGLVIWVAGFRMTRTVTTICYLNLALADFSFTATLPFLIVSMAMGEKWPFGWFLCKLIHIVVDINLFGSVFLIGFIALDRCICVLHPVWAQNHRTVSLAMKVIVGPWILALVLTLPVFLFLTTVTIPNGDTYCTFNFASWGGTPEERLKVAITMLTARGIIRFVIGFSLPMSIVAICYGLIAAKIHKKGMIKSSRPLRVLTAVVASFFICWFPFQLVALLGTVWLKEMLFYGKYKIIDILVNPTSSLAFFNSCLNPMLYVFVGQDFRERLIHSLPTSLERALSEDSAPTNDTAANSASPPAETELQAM
# In short: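 Agonist-induced calcium flux was recorded by FLIPR (488/540 nm) in HEK293-hALXR-Gα16 cells pre-loaded with Fluo-4 AM (1 μM, 60 min, 37°C). Peak signal above baseline, after subtracting buffer addition, was expressed relative to WKYMVm at 10 nM final.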
# human FPRL2 = target: T2, human FPRL2 (Homo sapiens, UniProt P25089); test: Intracellular calcium measurements (FLIPR), agonistic activity in HEK293-hFPRL2-Gα16 cells; format: cell-based; details: Fluo-4 calcium FLIPR, normalized to GLY14-Humanin 100 nM
# T2 construct: expressed in transfected cells; host or cells: HEK293 (HEK293-hFPRL2-Gα16)
# T2 sequence (P25089 1-353): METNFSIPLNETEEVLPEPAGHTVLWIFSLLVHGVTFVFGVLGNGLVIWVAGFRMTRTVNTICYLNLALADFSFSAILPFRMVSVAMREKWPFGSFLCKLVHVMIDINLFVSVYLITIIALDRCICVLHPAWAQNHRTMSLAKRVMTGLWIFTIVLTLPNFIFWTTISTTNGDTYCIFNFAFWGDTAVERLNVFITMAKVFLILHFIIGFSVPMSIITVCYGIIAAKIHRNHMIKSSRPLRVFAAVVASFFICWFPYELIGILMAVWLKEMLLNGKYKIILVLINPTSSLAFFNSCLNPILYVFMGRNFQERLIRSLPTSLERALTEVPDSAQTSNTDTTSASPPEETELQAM
# In short: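 Peak values after baseline subtraction are expressed relative to 100 nM Gly14-Humanin; compounds diluted in assay buffer from 10 mM DMSO stocks.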
Structure (SMILES),EC50 (human ALX receptor),EC50 (human FPRL2)
"O=C(NCCCCN1CCCC1)[C@H]1[C@H](C(=O)NCc2ccc(F)c(C(F)(F)F)c2)[C@@H]2C=C[C@H]1C21CC1 (racemic) [Example 366, (5R*)—N^5-(4-Fluoro-3-trifluoromethylphenyl-methyl)-(6R*)—N^6-(4-pyrrolidino-butyl)-(4S*,7R*)-[4,7-ethenylene-spiro[2.4]heptane]-5,6-dicarboxamide]",10000 nM,366 nM
"O=C(NCCCCN1CCCC1)[C@H]1[C@H](C(=O)NCc2cc(Cl)nc(Cl)c2)[C@@H]2C=C[C@H]1C21CC1 (racemic) [Example 367, (5R*)—N^5-[(2,6-Dichloropyridin-4-yl)methyl]-(6R*)—N^6-(4-pyrrolidino-butyl)-(4S*,7R*)-[4,7-ethenylene-spiro[2.4]heptane]-5,6-dicarboxamide]",10600 nM,644 nM
"Cc1ccc(C)c(CNC(=O)[C@H]2[C@H](C(=O)NCCCCN3CCCC3)[C@H]3C=C[C@@H]2C32CC2)c1 (racemic) [Example 368, (5R*)—N^5-(2,5-Dimethylphenyl-methyl)-(6R*)—N^6-(4-pyrrolidino-butyl)-(4S*,7R*)-[4,7-ethenylene-spiro[2.4]heptane]-5,6-dicarboxamide]",11100 nM,255 nM
"Cc1nc(NC(=O)[C@H]2[C@H](C(=O)NCCCCN3CCCC3)[C@H]3C=C[C@@H]2C32CC2)sc1C (racemic) [Example 369, (5R*)—N^5-(4,5-Dimethyl-thiazol-2-yl)-(6R*)—N^6-(4-pyrrolidino-butyl)-(4S*,7R*)-[4,7-ethenylene-spiro[2.4]heptane]-5,6-dicarboxamide]",> 25000 nM,204 nM
"COc1ccc(C)cc1CNC(=O)[C@H]1[C@H](C(=O)NCCCCN2CCCC2)[C@H]2C=C[C@@H]1C21CC1 (racemic) [Example 370, (5R*)—N^5-(2-Methoxy-5-methylphenyl-methyl)-(6R*)—N^6-(4-pyrrolidino-butyl)-(4S*,7R*)-[4,7-ethenylene-spiro[2.4]heptane]-5,6-dicarboxamide]",> 25000 nM,180 nM
"O=C(NCCCCN1CCCC1)[C@H]1[C@H](C(=O)NCc2c(F)ccc(F)c2Cl)[C@@H]2C=C[C@H]1C21CC1 (racemic) [Example 371, (5R*)—N^5-(2-Chloro-3,6-difluorophenyl-methyl)-(6R*)—N^6-(4-pyrrolidino-butyl)-(4S*,7R*)-[4,7-ethenylene-spiro[2.4]heptane]-5,6-dicarboxamide]",> 25000 nM,271 nM
"CC(C)Oc1ccccc1CNC(=O)[C@H]1[C@H](C(=O)NCCCCN2CCCC2)[C@H]2C=C[C@@H]1C21CC1 (racemic) [Example 372, (5R*)—N^5-(2-Isopropoxyphenyl-methyl)-(6R*)—N^6-(4-pyrrolidino-butyl)-(4S*,7R*)-[4,7-ethenylene-spiro[2.4]heptane]-5,6-dicarboxamide]",> 25000 nM,389 nM
"Cc1ccc(F)c(CNC(=O)[C@H]2[C@H](C(=O)NCCCCN3CCCC3)[C@H]3C=C[C@@H]2C32CC2)c1Cl (racemic) [Example 373, (5R*)—N^5-(2-Chloro-6-fluoro-3-methylphenyl-methyl)-(6R*)—N^6-(4-pyrrolidino-butyl)-(4S*,7R*)-[4,7-ethenylene-spiro[2.4]heptane]-5,6-dicarboxamide]",> 25000 nM,478 nM
"COc1ccc(CNC(=O)[C@H]2[C@H](C(=O)NCCCCN3CCCC3)[C@H]3C=C[C@@H]2C32CC2)cc1Cl (racemic) [Example 374, (5R*)—N^5-(3-Chloro-4-methoxyphenyl-methyl)-(6R*)—N^6-(4-pyrrolidino-butyl)-(4S*,7R*)-[4,7-ethenylene-spiro[2.4]heptane]-5,6-dicarboxamide]",2620 nM,237 nM
"COc1ccc(CNC(=O)[C@H]2[C@H](C(=O)NCCCCN3CCCC3)[C@H]3C=C[C@@H]2C32CC2)cc1OC (racemic) [Example 375, (5R*)—N^5-(3,4-Dimethoxyphenyl-methyl)-(6R*)—N^6-(4-pyrrolidino-butyl)-(4S*,7R*)-[4,7-ethenylene-spiro[2.4]heptane]-5,6-dicarboxamide]",9050 nM,443 nM
"COc1ccc(CNC(=O)[C@H]2[C@H](C(=O)NCCCCN3CCCC3)[C@H]3C=C[C@@H]2C32CC2)c(OC)c1 (racemic) [Example 376, (5R*)—N^5-(2,4-Dimethoxyphenyl-methyl)-(6R*)—N^6-(4-pyrrolidino-butyl)-(4S*,7R*)-[4,7-ethenylene-spiro[2.4]heptane]-5,6-dicarboxamide]",10300 nM,334 nM
"COc1ccc(CCNC(=O)[C@H]2[C@H](C(=O)NCCCCN3CCCC3)[C@H]3C=C[C@@H]2C32CC2)cc1OC (racemic) [Example 377, (5R*)—N^5-(2-(3,4-Dimethoxyphenyl)ethyl)-(6R*)—N^6-(4-pyrrolidino-butyl)-(4S*,7R*)-[4,7-ethenylene-spiro[2.4]heptane]-5,6-dicarboxamide]",> 25000 nM,417 nM
"COc1ccc(CCNC(=O)[C@H]2[C@H](C(=O)NCCCCN3CCCC3)[C@H]3C=C[C@@H]2C32CC2)cc1 (racemic) [Example 378, (5R*)—N^5-(2-(4-Methoxyphenyl)ethyl)-(6R*)—N^6-(4-pyrrolidino-butyl)-(4S*,7R*)-[4,7-ethenylene-spiro[2.4]heptane]-5,6-dicarboxamide]",8610 nM,74 nM
"O=C(NCCCCN1CCCC1)[C@H]1[C@H](C(=O)NCCc2ccc(Br)cc2)[C@@H]2C=C[C@H]1C21CC1 (racemic) [Example 379, (5R*)—N^5-(2-(4-Bromophenyl)ethyl)-(6R*)—N^6-(4-pyrrolidino-butyl)-(4S*,7R*)-[4,7-ethenylene-spiro[2.4]heptane]-5,6-dicarboxamide]",8810 nM,6.6 nM
"Cc1ccc(CCNC(=O)[C@H]2[C@H](C(=O)NCCCCN3CCCC3)[C@H]3C=C[C@@H]2C32CC2)cc1C (racemic) [Example 380, (5R*)—N^5-(2-(3,4-Dimethylphenyl)ethyl)-(6R*)—N^6-(4-pyrrolidino-butyl)-(4S*,7R*)-[4,7-ethenylene-spiro[2.4]heptane]-5,6-dicarboxamide]",> 25000 nM,103 nM
"O=C(NCCCCN1CCCC1)[C@H]1[C@H](C(=O)NCCc2ccc3c(c2)OCO3)[C@@H]2C=C[C@H]1C21CC1 (racemic) [Example 383, (5R*)—N^5-(2-(Benzo[d][1,3]dioxol-5-yl)ethyl)-(6R*)—N^6-(4-pyrrolidino-butyl)-(4S*,7R*)-[4,7-ethenylene-spiro[2.4]heptane]-5,6-dicarboxamide]",7680 nM,29 nM
"COc1ccc(CCNC(=O)[C@H]2[C@H](C(=O)NCCCCN3CCCC3)[C@H]3C=C[C@@H]2C32CC2)cc1Br (racemic) [Example 384, (5R*)—N^5-(2-(3-Bromo-4-methoxyphenyl)ethyl)-(6R*)—N^6-(4-pyrrolidino-butyl)-(4S*,7R*)-[4,7-ethenylene-spiro[2.4]heptane]-5,6-dicarboxamide]",10300 nM,72 nM
"Cc1ccc(CCNC(=O)[C@H]2[C@H](C(=O)NCCCCN3CCCC3)[C@H]3C=C[C@@H]2C32CC2)c(C)c1 (racemic) [Example 385, (5R*)—N^5-(2-(2,4-Dimethylphenyl)ethyl)-(6R*)—N^6-(4-pyrrolidino-butyl)-(4S*,7R*)-[4,7-ethenylene-spiro[2.4]heptane]-5,6-dicarboxamide]",> 25000 nM,27 nM
"CNCCNC(=O)[C@H]1[C@H](C(=O)NCc2nc(C(C)=O)cs2)[C@@H]2C=C[C@H]1C21CC1 (racemic) [Example 396, (5R*)—N^5-[(4-Acetyl-thiazol-2-yl)methyl]-(6R*)—N^6-(2-methylamino-ethyl)-(4S*,7R*)-[4,7-ethenylene-spiro[2.4]heptane]-5,6-dicarboxamide]",1040 nM,872 nM
"O=C(NCCCCN1CCCC1)[C@H]1[C@H](C(=O)Nc2ccc(C(F)(F)F)nc2)[C@@H]2C=C[C@H]1C21CC1 (racemic) [Example 422, (5R*)—N^5-(2-Trifluoromethyl-pyridin-5-yl)-(6R*)—N^6-(4-pyrrolidin-1-yl-butyl)-(4S*,7R*)-[4,7-ethenylene-spiro[2.4]heptane]-5,6-dicarboxamide]",11 nM,99 nM
